According to ChEMBL document CHEMBL1143120, “Characterization of the two major CYP450 metabolites of ozonide (1,2,4-trioxolane) OZ277” (Bioorg Med Chem Lett, 2008):
Converted amounts (≈) assume the structure as drawn.

How the values were obtained:
Plasmodium falciparum = experiment: Antimalarial activity against Plasmodium falciparum K1; format: functional, organism-based
[1] = Distribution coefficient, log D of the compound; format: physicochemical; settings: octanol/water

| Structure (SMILES) | IC50 (Plasmodium falciparum) [µg/mL] | logD [1] |
| --- | --- | --- |
| CC(C)(N)CNC(=O)C[C@H]1CC[C@]2(CC1)OO[C@]1(O2)C2CC3CC1C[C@@](O)(C3)C2 | > 0.1 | 1.8 |
| CC(C)(N)CNC(=O)C[C@H]1CC[C@]2(CC1)OO[C@]1(O2)C2CC3CC1C[C@](O)(C3)C2 | > 0.1 | 1.8 |
| CC(C)(N)CNC(=O)C[C@H]1CC[C@]2(CC1)OO[C@]1(O2)C2CC3CC(C2)CC1C3 [OZ277] | 0.001 (≈ 0.00255 µM) | 3.2 |
